Measured values taken from ChEMBL document CHEMBL1821631, “A novel binding assay identifies high affinity ligands to the rosiglitazone binding site of mitoNEET” (Bioorg Med Chem Lett, 2011).
Active and inactive are the calls of the source. No cut-off for these calls is given here.

Target: T1, CDGSH iron-sulfur domain-containing protein 1 (Homo sapiens, UniProt Q9NZ45)
T1 sequence (Q9NZ45 whole entry): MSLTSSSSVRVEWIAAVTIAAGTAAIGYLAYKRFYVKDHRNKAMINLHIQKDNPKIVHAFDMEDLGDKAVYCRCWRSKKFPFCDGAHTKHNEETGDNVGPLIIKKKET
Assay: Displacement of [3H]-rosiglitazone from human recombinant C-terminal His-tagged cytosolic domain of mitoNEET (32-108) by scintillation proximity assay

SMILES | IC50 [µM]
O=C(/C=C1/SC(=O)NC1=O)Nc1cccc(O)c1 | 13.7
Cc1cc(CC2SC(=O)NC2=O)cc(C)c1O (stereo unspecified) | 9.56
CC(C)(C)c1cc(CC2SC(=O)N=C2O)cc(C(C)(C)C)c1O (stereo unspecified) | 7.36
O=C1NC(=O)C(Cc2ccc3c(c2)OC(F)(F)O3)S1 (stereo unspecified) | 5.23
O=C1NC(=O)C(Cc2ccc(O)cc2)S1 (stereo unspecified) [GLITAZONE] | 14
O=C(/C=C1/SC(=O)NC1=O)Nc1ccccc1 | 11.1
Cc1cc(C)cc(CC2SC(=O)NC2=O)c1 (stereo unspecified) | 13.3
O=S(=O)(O)Oc1cc(O)cc(/C=C/c2ccc(O)cc2)c1 | 3.36

Continued, values first:

IC50 [µM] | SMILES
5.97 | O=C1NC(=S)S/C1=C/c1ccncc1
4.47 | COc1cc(/C=C2/SC(=S)NC2=O)c(OC)cc1O
1.73 | COc1cc(/C=C2\SC(=S)NC2=O)ccc1O
3.26 | O=C1NC(=O)/C(=C/c2ccc3nccnc3c2)S1
82.3 | COc1ccccc1/C=C1\SC(=O)N(CCN)C1=O
2.93 | O=C1NC(=O)/C(=C\c2cc(Br)c(O)cc2Br)S1

Target: T2, CDGSH iron-sulfur domain-containing protein 1 (Homo sapiens) (UniProt Q9NZ45)
T2 sequence (whole entry): T1 sequence (Q9NZ45 whole entry)
Assay: Displacement of [3H]-rosiglitazone from human recombinant C-terminal His-tagged cytosolic domain of mitoNEET (32-108) at 80 uM by scintillation proximity assay

inhibition | SMILES
inactive | N#CCCN1C(=O)S/C(=C\c2ccccc2)C1=O
inactive | Oc1ccc(/C=C/c2cc(O)cc(O)c2)cc1
